For test [1], the target named is T1, STUB1 (Homo sapiens, UniProt Q9UNE7).
T1 construct: full length (303 residues), HA-tagged, ectopically expressed in 293T cells, lysate
T1 sequence (Q9UNE7 1-303): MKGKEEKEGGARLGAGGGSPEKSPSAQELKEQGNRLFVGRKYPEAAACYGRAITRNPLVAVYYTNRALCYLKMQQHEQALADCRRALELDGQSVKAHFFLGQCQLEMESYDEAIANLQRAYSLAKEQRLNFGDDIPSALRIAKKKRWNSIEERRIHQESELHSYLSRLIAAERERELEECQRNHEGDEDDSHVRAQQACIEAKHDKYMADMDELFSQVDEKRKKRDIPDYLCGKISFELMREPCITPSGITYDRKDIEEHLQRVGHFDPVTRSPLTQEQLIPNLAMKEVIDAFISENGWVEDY
Kind of test: thermal shift in […] lysate (immunoblot); DARTS. The test is classed as biochemical. As to conditions: 10 uM Lac for 30 min in thermal shift; 30 uM Lac for 3 h in DARTS. In general terms: In western blotting, separated proteins are transferred to a membrane and probed.

The target of test [2] is T2, STUB1 TPR domain (STUB1 1-130) (Homo sapiens, UniProt Q9UNE7).
T2 construct: N-terminal TPR domain, residues 1-130; ITC: His-tagged from E. coli BL21 (pET-T7-STUB1 1-130-His); thermal shift and point mutants: 1-130-3xFlag6xHis expressed in 293T cells
T2 sequence (Q9UNE7 1-130): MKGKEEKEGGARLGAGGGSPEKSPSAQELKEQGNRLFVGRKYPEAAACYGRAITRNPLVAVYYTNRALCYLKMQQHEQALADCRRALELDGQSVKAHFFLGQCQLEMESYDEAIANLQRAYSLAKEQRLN
Description: isothermal titration calorimetry. The test is classed as binding. As to conditions: read-out: Ka (converted). In general terms: In ITC the heat of successive injections is recorded.

For `CC(=O)O[C@H]1C[C@H](O[C@H]2[C@@H](O)C[C@H](O[C@H]3[C@@H](O)C[C@H](O[C@H]4CC[C@@]5(C)[C@H](CC[C@@H]6[C@@H]5C[C@@H](O)[C@]5(C)[C@@H](C7=CC(=O)OC7)CC[C@]65O)C4)O[C@@H]3C)O[C@@H]2C)O[C@H](C)[C@H]1O[C@@H]1O[C@H](CO)[C@@H](O)[C@H](O)[C@H]1O` [Lanatoside C], the thermal shift entry in test [1] is reported as “Lac directly bound STUB1 as revealed in the thermal shift assay”. For the same molecule, the Kd in test [2] was 7.69 µM.

These data come from article PMC11904033, “Lanatoside C activates the E3 ligase STUB1 to inhibit FOXP3 transcriptional activity and promote antitumor immunity” (EMBO Molecular Medicine, 2025).
